The values below come from ChEMBL document CHEMBL1201862, “PubChem BioAssay data set” (2004).

Active and inactive are the calls of the source. Cut-off read from the data, not from the text of the source, for most assays here: actives have a measured IC50 and inactives only a lower limit.

In one experiment the target is T1, Caspase-3 (Homo sapiens, UniProt P42574).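 Note: Dose-response selectivity test against caspase-3 for candidate inhibitors of sentrin-specific proteases (SENPs).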
T1 sequence (P42574 whole entry): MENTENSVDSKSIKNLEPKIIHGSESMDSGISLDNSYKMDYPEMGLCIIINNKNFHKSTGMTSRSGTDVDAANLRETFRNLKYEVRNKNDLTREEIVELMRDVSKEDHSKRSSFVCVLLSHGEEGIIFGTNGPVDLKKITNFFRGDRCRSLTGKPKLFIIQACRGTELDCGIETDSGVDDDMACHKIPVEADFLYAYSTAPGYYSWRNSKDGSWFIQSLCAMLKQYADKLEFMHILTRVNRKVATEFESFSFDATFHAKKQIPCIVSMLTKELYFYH
Type of experiment: functional.

The target of experiment [1] is T2, Sentrin-specific protease 7 (Homo sapiens, UniProt Q9BQF6).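 Note: Luminescence-based dose-response confirmation of ultra-high-throughput screening hits, measuring inhibition of SENP7.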
T2 sequence (Q9BQF6 whole entry): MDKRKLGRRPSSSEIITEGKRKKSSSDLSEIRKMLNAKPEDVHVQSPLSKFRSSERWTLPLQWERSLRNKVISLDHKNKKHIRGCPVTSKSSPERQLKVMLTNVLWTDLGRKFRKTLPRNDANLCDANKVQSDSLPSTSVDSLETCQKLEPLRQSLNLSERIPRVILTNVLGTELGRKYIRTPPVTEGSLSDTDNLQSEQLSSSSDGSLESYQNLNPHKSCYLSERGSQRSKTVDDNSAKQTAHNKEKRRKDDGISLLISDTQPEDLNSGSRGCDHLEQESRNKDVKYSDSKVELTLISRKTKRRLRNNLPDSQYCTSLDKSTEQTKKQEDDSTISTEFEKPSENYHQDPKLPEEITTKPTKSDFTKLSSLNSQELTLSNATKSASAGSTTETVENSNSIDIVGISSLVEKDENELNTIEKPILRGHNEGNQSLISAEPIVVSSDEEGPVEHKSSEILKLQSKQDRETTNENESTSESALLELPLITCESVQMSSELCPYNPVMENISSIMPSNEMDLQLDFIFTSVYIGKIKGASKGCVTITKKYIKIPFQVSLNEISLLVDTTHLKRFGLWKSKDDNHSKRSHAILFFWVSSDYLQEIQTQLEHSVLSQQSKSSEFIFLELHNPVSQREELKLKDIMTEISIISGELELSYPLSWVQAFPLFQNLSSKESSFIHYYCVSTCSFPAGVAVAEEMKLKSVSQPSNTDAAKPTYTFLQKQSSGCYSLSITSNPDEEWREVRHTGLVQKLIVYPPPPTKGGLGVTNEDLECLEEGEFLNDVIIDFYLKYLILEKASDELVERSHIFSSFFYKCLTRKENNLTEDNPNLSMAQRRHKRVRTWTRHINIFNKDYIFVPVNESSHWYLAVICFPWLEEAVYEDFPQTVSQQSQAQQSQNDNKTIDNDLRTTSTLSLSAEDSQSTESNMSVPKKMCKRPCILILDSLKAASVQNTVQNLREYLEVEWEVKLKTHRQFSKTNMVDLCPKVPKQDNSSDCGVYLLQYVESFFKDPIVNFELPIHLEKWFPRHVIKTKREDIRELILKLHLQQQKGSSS
Type of experiment: functional.

In experiment [2] the target is T3, Sentrin-specific protease 6 (Homo sapiens, UniProt Q9GZR1).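 Note: Luminescence-based dose-response confirmatory assay of SENP6 inhibition, following up an ultra-high-throughput screen.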
T3 sequence (Q9GZR1 whole entry): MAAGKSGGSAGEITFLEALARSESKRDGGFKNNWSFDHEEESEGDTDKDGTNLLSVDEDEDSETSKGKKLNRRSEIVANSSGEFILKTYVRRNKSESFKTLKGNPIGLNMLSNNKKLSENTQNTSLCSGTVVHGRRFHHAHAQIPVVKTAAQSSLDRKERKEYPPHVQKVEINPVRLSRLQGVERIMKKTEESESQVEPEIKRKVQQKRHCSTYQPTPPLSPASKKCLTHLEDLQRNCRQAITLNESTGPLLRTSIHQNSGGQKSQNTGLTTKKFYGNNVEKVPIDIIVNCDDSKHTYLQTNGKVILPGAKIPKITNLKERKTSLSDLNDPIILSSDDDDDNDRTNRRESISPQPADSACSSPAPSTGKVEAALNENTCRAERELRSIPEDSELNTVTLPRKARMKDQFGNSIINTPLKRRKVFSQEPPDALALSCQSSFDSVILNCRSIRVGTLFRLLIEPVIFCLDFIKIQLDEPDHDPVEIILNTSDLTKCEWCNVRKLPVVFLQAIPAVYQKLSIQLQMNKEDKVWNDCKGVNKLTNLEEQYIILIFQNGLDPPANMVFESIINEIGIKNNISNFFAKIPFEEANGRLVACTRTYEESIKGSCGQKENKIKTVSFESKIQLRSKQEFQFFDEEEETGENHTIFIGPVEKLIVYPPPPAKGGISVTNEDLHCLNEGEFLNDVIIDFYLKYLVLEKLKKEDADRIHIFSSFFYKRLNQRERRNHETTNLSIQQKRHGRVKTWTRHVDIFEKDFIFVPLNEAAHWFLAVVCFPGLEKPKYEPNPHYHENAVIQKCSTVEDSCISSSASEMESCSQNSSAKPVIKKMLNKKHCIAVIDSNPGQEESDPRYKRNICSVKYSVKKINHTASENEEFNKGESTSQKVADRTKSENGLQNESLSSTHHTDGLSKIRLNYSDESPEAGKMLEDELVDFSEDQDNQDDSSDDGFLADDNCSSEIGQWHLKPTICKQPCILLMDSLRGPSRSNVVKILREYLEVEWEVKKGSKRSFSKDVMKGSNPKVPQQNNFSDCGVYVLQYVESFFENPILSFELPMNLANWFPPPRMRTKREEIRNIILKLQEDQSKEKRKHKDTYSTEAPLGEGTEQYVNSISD
In kind it is functional.

A short description of experiment [3]: NIH3T3 cell viability loss – ATP luminescence, mouse fibroblasts, counter-screen, dose response (AID 2010).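 Note: cells exposed to compound for about 90 hours before reading.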 Type of experiment: functional, cell-based. For orientation: A counterscreen serves to expose hits that act by an unwanted route or on another target.
Experiment [4] is described as follows: viability loss in THP-1 monocytes – THP-1 cells, cytotoxicity control for Vif-APOBEC3G degradation inhibitor project, dose response (AID 1117359). Type of experiment: functional. The settings on record: THP-1.

What is called IC50 is the concentration that inhibits the measured activity by half. `O=C(/C=C/c1ccco1)Nc1ccc(Oc2ccccc2)cc1`: the IC50 at Caspase-3 is 20.5 µM (active); in experiment [1] it was 3.82 µM (active); in experiment [2] it was 5.23 µM (active).

By EC50 is commonly meant the concentration at which the effect is half-maximal. Broadly, the CC50 is the concentration at which the toxic effect on the cells reaches its halfway point. For the compound `CC1CC(=O)c2c(cc3c(-c4c(O)cc(O)c5c(O)c6c(cc45)OC(C)CC6=O)c(O)cc(O)c3c2O)O1` (stereo not given) [CEPHALOCHROMIN], the EC50 in experiment [3] is 8.42 µM (active). In addition, the half-maximal cytotoxic concentration (CC50) in experiment [4] was 3.08 µM (active).

With `COc1ccc(S(=O)(=O)Nc2cc(SCC(=O)O)c(O)c3ccccc23)cc1`, the IC50 is 11.2 µM (active) at Caspase-3, 19.9 µM (active) in experiment [1] and 3.81 µM (active) in experiment [2]. Also, the CC50 in experiment [4] is 5.84 µM (active).

On to `O=C1C(Nc2ccc(O)cc2)=C/C(=N/S(=O)(=O)c2cccs2)c2ccccc21`, for which, in experiment [3], the EC50 is 0.486 µM (active).
